In PMC9135253, “Potential of phenothiazines to synergistically block calmodulin and reactivate PP2A in cancer cells” (PLoS ONE, 2022):
pIC50: −log10 of the molar value. Where “and” joins values, the source holds several entries; their conditions need not be identical. Equal values may be shown once. Read-outs that look alike come from different tables or passages of the source.

Assays:
Format in all cases: cell-based
[1] = test system: NCI-H358 (KRAS-G12C) 3D spheroids; test: 3D spheroid formation assay (alamarBlue), NCI-H358; details: read-out: IC50 values
Method: (§1) 3D spheroid formation assays were performed in 96-well low-attachment, suspension culture plates (cat. no. 655185, Cellstar, Greiner Bio-One) under serum free conditions. About 1000 cells per well were seeded in 50 μL RPMI medium (cat. no. 52400–025, Gibco, ThermoFisher Scientific) containing 0.5% (v/v) MethoCult (cat. no. SF H4636, Stemcell technologies), 1X B27 (cat. no. 17504044, Gibco, ThermoFisher Scientific), 25 ng/mL EGF (cat. no. E9644, Sigma-Aldrich) and 25 ng/ mL FGF (cat. no. RP-8628, ThermoFisher Scientific). Cells were cultured for 3 days and then treated with compounds or vehicle control (DMSO 0.1% (v/v) in growth medium) for another 3 days. The cells were supplemented with fresh growth medium on the third day together with the drug treatment. Spheroid formation efficiency was analyzed by alamarBlue assay reagent (cat. no. DAL1100, ThermoFisher Scientific).
(§2) A 10% (v/v) final volume of alamarBlue reagent was added to each well of the plate and incubated for 4 h at 37°C. Then the fluorescence intensity (λexcitation 560 ± 5 nm and λemission 590 ± 5 nm) was measured using the FLUOstar OPTIMA plate reader (BMG Labtech, Germany).
(§3) (A) Heatmap of ATARiS gene sensitivity scores of two KRAS dependent cell lines (NCI-H358 and MDA-MB-231) and a BRAF dependent cell line (A375). Negative values (shaded red) indicate sensitivity of the cell line proliferation to the knockdown of shown genes, whereas positive scores (shaded blue) indicate insensitivity. (B) IC50 values for indicated compounds in Ras pathway mutant cell lines NCI-H358, MDA-MB231 and A375 grown as 3D spheroids under serum free conditions. […] Statistical comparisons were done using the average values across all three cell lines. […] Positive scores indicate synergistic drug interactions whereas negative scores would denote antagonistic drug interactions. A score of zero would indicate no antagonistic or synergistic effect. (D) Flow cytometric analysis of apoptosis in MDA-MB-231 cells. […] Benzethonium chloride and DMSO treated cells were used as positive and negative controls, respectively, for setting the gates. Percentage of total apoptotic cells (early and late stage) from two biological repeats (mean ± SD) is presented. Statistical analysis was performed using Fisher’s exact test comparing the total number of viable and apoptotic cells from two biological repeats. (E) Effect of inhibitors on cellular apoptosis studied using Caspase-3/7Glo assay. […] The caspase-3/7 activity was measured as a luminescence read-out and normalized to the vehicle control, 0.05% (v/v) DMSO. […] GAPDH detection was used as loading control.

[2] = test system: A375 (BRAF-V600E) 3D spheroids; test: 3D spheroid formation assay (alamarBlue), A375
Method: as §1, §2, §3

[3] = test system: MDA-MB-231 (KRAS-G13D) 3D spheroids; test: 3D spheroid formation assay (alamarBlue), MDA-MB-231; details: read-out: IC50 values
Method: as §1, §2, §3

MDA-MB-231 cells [4] = test: Flow cytometry-based apoptosis assay (Annexin V-FITC / 7-AAD); details: for apoptotic cells (%): DT-061 10 μM, calmidazolium 5 μM or combination, 24 h
Method: MDA-MB-231 cells were grown for 24 h in complete RPMI medium. The next day the cells were treated with inhibitors for 24 h. […] The cells were labelled using the Annexin V-FITC / 7-AAD apoptosis-detection kit (Beckman-Coulter, cat. no. B60224-AB) according to the manufacturer’s instruction.
as §3, with “Negative” for “(A) Heatmap of ATARiS gene sensitivity scores of two KRAS dependent cell lines (NCI-H358 and MDA-MB-231) and a BRAF dependent cell line (A375). Negative”

[5] = test system: caspase-3/7 activity in MDA-MB-231 cells; test: Caspase-3/7Glo assay; details: 24 h
Description: as §3, with “Negative” for “(A) Heatmap of ATARiS gene sensitivity scores of two KRAS dependent cell lines (NCI-H358 and MDA-MB-231) and a BRAF dependent cell line (A375). Negative”

[6] = test system: K-RasG12V (Rluc8-/GFP2-tagged) in HEK-293 EBNA cells; test: K-RasG12V nanoclustering-BRET assay; details: for effect on the RasG12V-BRET signals (in words): K-RasG12V and H-RasG12V biosensors; for K-RasG12V BRET: compounds 20 μM, FTI-277 1 μM, OphA 2.5 μM, 24 h
[7] = test system: H-RasG12V (Rluc8-/GFP2-tagged) in HEK-293 EBNA cells; test: H-RasG12V nanoclustering-BRET assay; details: for H-RasG12V BRET: compounds 20 μM, FTI-277 1 μM, OphA 2.5 μM, 24 h
[8] = test system: c-MYC in MDA-MB-231 cells; test: Western blot of c-MYC expression; details: 24 h
[9] = test system: pERK/ERK in MIA PaCa-2 cells; test: Western blot of MAPK signaling output (pERK/ERK)
MDA-MB-231 cells [10] = test: 2D cell viability assay (alamarBlue), MDA-MB-231; details: MDA-MB-231, 72 h
MIA PaCa-2 cells = test: 2D cell viability assay (alamarBlue), MIA PaCa-2; details: MIA PaCa-2, 72 h
HEK-293 EBNA cells = test: 2D cell viability assay (alamarBlue), HEK-293 EBNA; details: 72 h
[11] = DT-061 5 μM, calmidazolium 5 μM, combination 5 μM each, staurosporine 1 μM, normalized to DMSO, replicates
[12] = K-RasG12V nanoclustering-BRET dose response (0.1–80 μM; OphA 0.3–20 μM), replicates
[13] = K-RasG12V nanoclustering-BRET, mean
[14] = H-RasG12V nanoclustering-BRET dose response (0.1–80 μM; OphA 0.3–20 μM), replicates
[15] = H-RasG12V nanoclustering-BRET, mean
[16] = 10 μM, MDA-MB-231, replicates N1-N4
[17] = 20 μM, MDA-MB-231, replicates N1-N4, values marked * excluded
[18] = MIA PaCa-2 + EGF, same treatments, mean

Compound	caspase 3/7 activity (fold change) [5, 11]	caspase 3/7 activity (fold change) ([5]; same treatments, mean)	effect on the RasG12V-BRET signals (in words) [6]	DSS3 BRET score [6, 12]	DSS3 BRET score [6, 13]	K-RasG12V BRET ([6]; mean)	DSS3 BRET score [7, 14]	DSS3 BRET score [7, 15]	H-RasG12V BRET ([7]; mean)	c-MYC/Vinculin relative expression [8, 16]	c-MYC/Vinculin relative expression ([8]; 10 μM, Mean (DMSO 1.78))	c-MYC/Vinculin relative expression [8, 17]	c-MYC/Vinculin relative expression ([8]; 20 μM, Mean (DMSO 1.48))	normalized pERK/ERK ratio % [9, 18]	also measured
O=S(=O)(N[C@@H]1CCC[C@H](N2c3ccccc3Oc3ccccc32)[C@H]1O)c1ccc(OC(F)(F)F)cc1 [DT-061]	0.9556 fold change and 1.016 fold change	0.99 fold change	Neither the PP2A activator DT-061, nor Flu had an effect	0.6 and 1	0.8	100.53	0.2 and 0.4	0.3	100.52	1.352 and 1.842 and 0.8895 and 1.57	1.41	1.784* and 1.955* and 0.7599 and 0.9549	0.86	73.35%	pIC50 ([1]; Homo sapiens, NCI-H358, 72 h, NCI-H358 3D spheroids, serum free, 3 days treatment, replicates N1, N2): 5.62; pIC50 ([1]; Homo sapiens, NCI-H358, NCI-H358 3D spheroids, Mean, n = 2): 5.58; pIC50 ([1]; NCI-H358 3D spheroids, serum free, 3 days treatment, replicates N1, N2): 5.54; pIC50 ([2]; A375 3D spheroids, serum free, 3 days treatment, replicates N1, N2): 5.57; pIC50 ([2]; Homo sapiens, A-375, 72 h, A375 3D spheroids, serum free, 3 days treatment, replicates N1, N2): 5.82; pIC50 ([2]; Homo sapiens, A-375, A375 3D spheroids, Mean, n = 2): 5.68; pIC50 ([3]; Homo sapiens, MDA-MB-231, 72 h, MDA-MB-231 3D spheroids, serum free, 3 days treatment, replicates N1, N2): 5.52; pIC50 ([3]; Homo sapiens, MDA-MB-231, MDA-MB-231 3D spheroids, Mean, n = 2): 5.52; pIC50 ([3]; MDA-MB-231 3D spheroids, serum free, 3 days treatment, replicates N1, N2): 5.51; apoptotic cells (%) (MDA-MB-231 cells [4]; early and late stage, replicates N1, N2): 17.3843% and 7.228%; apoptotic cells (%) (MDA-MB-231 cells [4]; mean): 12.31%; apoptotic cell population (MDA-MB-231 cells [4]; MDA-MB-231, 24 h): 12%; K-RasG12V BRET ([6]; A/D plasmid ratio 4/1, individual replicates N1.1-N3.4): 102.439 and 101.315 and 102.277 and 100.953 and 98.6605 and 100.047 and 101.073 and 97.4843; H-RasG12V BRET ([7]; A/D plasmid ratio 4/1, individual replicates N1.1-N2.4): 100.79 and 100.058 and 101.294 and 101.06 and 100.674 and 100.693 and 99.8758 and 99.7238; normalized pERK/ERK ratio % ([9]; MIA PaCa-2 + EGF, 2 h, trametinib 1 μM, AMG-510 1 μM, calmidazolium 20 μM, DT-061 20 μM, combination each 10 μM, fluphenazine mustard 20 μM, replicates N1-N3): 84.4108% and 54.7097% and 80.94%
CN[C@@H]1C[C@H]2O[C@@](C)([C@@H]1OC)n1c3ccccc3c3c4c(c5c6ccccc6n2c5c31)C(=O)NC4 [staurosporine]	5.7754 fold change and 5.5715 fold change and 6.4904 fold change and 6.254 fold change	6.02 fold change	–	–	–	–	–	–	–	–	–	–	–	–	–
FC(F)(F)c1ccc2c(c1)N(CCCN1CCN(CCCl)CC1)c1ccccc1S2 [fluphenazine mustard]	–	–	even stronger effect than CMZ	17.9 and 3.8 and 4.3 and 7 and 12.9	9.18	72.64	13.1 and 5.3 and 9.9 and 9.6	9.48	65.64	0.7502 and 0.7758 and 0.7975 and 1.298	0.91	1.798* and 1.478 and 1.405 and 0.9115	1.26	40%	normalized pERK/ERK ratio % [9]: 46.7324% and 34.232% and 39.0258%; 2D monolayer DSS3 (MDA-MB-231 cells [10]; Mean): 32.27; 2D monolayer DSS3 (MDA-MB-231 cells [10]; replicates N1-N3): 27.5 and 31.9 and 37.4; 2D monolayer DSS3 (MIA PaCa-2 cells; Mean): 65.73; 2D monolayer DSS3 (MIA PaCa-2 cells; replicates N1-N3): 64.1 and 65.3 and 67.8; 2D monolayer DSS3 (HEK-293 EBNA cells; Mean): 5.4; 2D monolayer DSS3 (HEK-293 EBNA cells; replicates N1-N3): 6.1 and 5.1 and 5
